From patent US6579881B2 (Eisai Co., Ltd., priority 1997, dated 2003)
Where a name gives a salt, the structure may show the parent alone.

How the values were obtained:
[1] = molecular target: serotonin 2 receptor (Rattus norvegicus, UniProt P14842); experiment: Binding test on [3H] ketanserin (serotonin 2 receptor); settings: [3H] ketanserin 0.3 nM, receptor fraction of rat cerebral cortex; read-out: 5HT2
[2] = molecular target: T1, serotonin 1A receptor (Rattus norvegicus, UniProt P19327); experiment: Binding test on [3H] 8-hydroxy-dipropylaminotetralin (serotonin 1A receptor); settings: [3H] 8-OH-DPAT 0.5 nM, receptor fraction of rat hippocampus; read-out: 5HT1a
T1 construct: To the receptor fraction of the hippocampus were added a test compound and 0.5 nM of [^3H]; 8-hydroxy-dipropylaminotetralin; from tissue; host or cells: SD rat hippocampus, membrane (receptor) fraction
T1 sequence (P19327 1-422): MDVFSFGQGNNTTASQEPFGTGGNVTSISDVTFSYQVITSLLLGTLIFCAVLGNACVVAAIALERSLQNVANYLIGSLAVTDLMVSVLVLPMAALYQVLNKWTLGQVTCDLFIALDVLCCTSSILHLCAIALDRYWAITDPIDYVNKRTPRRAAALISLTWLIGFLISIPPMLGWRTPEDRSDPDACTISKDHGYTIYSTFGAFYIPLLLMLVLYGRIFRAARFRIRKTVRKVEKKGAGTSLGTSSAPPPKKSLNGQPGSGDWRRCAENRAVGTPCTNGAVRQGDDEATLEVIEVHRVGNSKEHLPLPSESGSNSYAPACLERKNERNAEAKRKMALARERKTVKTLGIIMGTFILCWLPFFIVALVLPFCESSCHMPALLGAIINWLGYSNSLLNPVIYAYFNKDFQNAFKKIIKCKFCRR

Sequence of serotonin 2 receptor (P14842 whole entry): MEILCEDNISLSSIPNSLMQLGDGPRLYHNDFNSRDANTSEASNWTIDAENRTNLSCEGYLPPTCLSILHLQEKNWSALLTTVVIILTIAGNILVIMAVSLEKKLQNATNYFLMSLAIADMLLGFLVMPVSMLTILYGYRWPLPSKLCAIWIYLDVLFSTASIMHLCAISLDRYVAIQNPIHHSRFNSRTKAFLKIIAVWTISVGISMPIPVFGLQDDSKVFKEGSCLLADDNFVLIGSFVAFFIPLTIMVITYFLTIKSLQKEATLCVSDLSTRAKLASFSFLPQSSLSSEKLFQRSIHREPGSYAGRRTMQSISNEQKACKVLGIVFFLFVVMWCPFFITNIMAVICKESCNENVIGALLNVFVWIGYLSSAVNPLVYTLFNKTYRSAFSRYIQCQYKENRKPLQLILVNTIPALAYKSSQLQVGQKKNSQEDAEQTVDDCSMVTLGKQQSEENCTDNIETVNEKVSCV

| Ki [1] [nM] | Ki [2] [nM] | Compound |
| --- | --- | --- |
| 18.1 | 0.04 | CC(=O)Nc1ccc2c(c1)N(C1CCN(CCc3ccc(F)cc3F)CC1)CC2 [Example 222, 1-[1-(2,4-difluorophenethyl)piperidin-4-yl]-6-acetamidoindoline] |
| 7.61 | 5.74 | NC(=O)Cc1ccc2c(c1)N(C1CCN(CCc3ccc(F)cc3F)CC1)CC2 [Example 225, 1-[1-(2,4-difluorophenethyl)piperidin-4-yl]-6-carbamoylmethylindoline] |
| 48.2 | 37.6 | CC(=O)NCc1ccc2c(c1)N(C1CCN(CCCOc3ccc(F)cc3)CC1)CC2 [Example 232, 1-[1-(4-fluorophenoxypropyl)piperidin-4-yl]-6-acetamidomethylindoline] |
| 27.6 | > 200 | CCN1CCC(N2CC(c3ccc(F)cc3)c3ccccc32)CC1 (stereo not shown) [Example 240, 1-(1-ethylpiperidin-4-yl)-3-(4-fluorophenyl)indoline] |
| 2.3 | > 200 | CCN1CCC(N2CC(Cc3ccc(OC)cc3)c3ccccc32)CC1 (stereo not shown) [Example 242, 1-(1-ethylpiperidin-4-yl)-3-(4-methoxybenzyl)indoline] |
| 2.5 | > 200 | CCN1CCC(N2CC(Cc3ccc(F)cc3)c3ccccc32)CC1 (stereo not shown) [Example 244, 1-(1-ethylpiperidin-4-yl)-3-(4-fluorobenzyl)indoline] |
| 11.2 | > 200 | CCN1CCC(N2CC(Cc3cccnc3)c3ccccc32)CC1 (stereo not shown) [Example 245, 1-(1-ethylpiperidin-4-yl)-3-(3-pyridylmethyl)indoline] |
| 20.2 | 2.1 | COc1ccc(CCN2CCC(C3CCc4ccccc43)CC2)cc1 (stereo not shown) [Example 249, 1-[1-(4-methoxyphenethyl)piperidin-4-yl]indan] |
| > 200 | 58.5 | CCN1CCN(C2CCc3ccc(OC)cc32)CC1 (stereo not shown) [Example 251, 1-(4-ethylpiperazin-1-yl)-6-methoxyindan Hydrochloride] |
| 15.7 | > 200 | OC1(C2CCc3cccnc32)CCN(CCc2ccc(F)cc2)CC1 (stereo not shown) [Example 255, 7-[4-hydroxy-1-(4-fluorophenethyl)piperidin-4-yl]-5,6-dihydro-7H-pyrindine] |
| 12.1 | 0.4 | Fc1ccc(CCN2CCC(=C3CCc4cccnc43)CC2)cc1 [Example 256, 7-[1-(4-fluorophenethyl)piperidin-4-ylidene]-5,6-dihydropyrindine] |
| 0.61 | 2.8 | Fc1ccc(CCN2CCC(C3CCc4cccnc43)CC2)cc1 (stereo not shown) [Example 257, 7-[1-(4-fluorophenethyl)piperidin-4-yl]-5,6-dihydro-7H-pyrindine] |
| 5.9 | 0.6 | Fc1ccc(CCN2CCC(N3CCc4ccc(Cl)nc43)CC2)cc1 [Example 259, 1-[1-(4-fluorophenethyl)piperidin-4-yl]-6-chloro-7-azaindoline] |
| 12.9 | 1.3 | Fc1ccc(CCN2CCC(N3CCc4cccnc43)CC2)cc1 [Example 260, 1-[1-(4-fluorophenethyl)piperidin-4-yl]-7-azaindoline] |
| 2.1 | 1.5 | Fc1ccc(CCN2CCC(N3CCc4ccc(Cl)nc43)CC2)c(F)c1 [Example 262, 1-[1-(2,4-difluorophenethyl)piperidin-4-yl]-6-chloro-7-azaindoline] |
| 34.2 | 25.2 | CC1CC(=C2CCN(CCc3ccc(F)cc3)CC2)c2nccnc21 (stereo not shown) [Example 265, 5-[1-(4-fluorophenethyl)piperidin-4-ylidene]-7-methyl-5,6-dihydrocyclopentapyrazine] |
| 4.7 | 4.5 | Fc1ccc(CCN2CCC(N3CCc4cc5c(cc43)OCO5)CC2)cc1 [Example 284, 1-[1-(4-fluorophenethyl)piperidin-4-yl]-5,6-methylenedioxyindoline] |
| 16.2 | 2.24 | Fc1ccc(CCN2CCC(n3ccc4ccccc43)CC2)c(F)n1 [Example 332, 1-[1-(2,6-difluoro-3-pyridylethyl)piperidin-4-yl]indole] |
| > 20 | 1.08 | Fc1ccc(CCN2CCC(n3ccc4ccc(F)cc43)CC2)cc1 [Example 333, 1-[1-(4-fluorophenethyl)piperidin-4-yl]-6-fluoroindole] |

The next lines start with the molecule.

| Compound | Ki [1] [nM] | Ki [2] [nM] |
| --- | --- | --- |
| CC(=O)NCc1ccc2c(c1)N(C1CCN(CCc3ccc(F)cc3F)CC1)CC2 [Example 224, 1-[1-(2,4-difluorophenethyl)piperidin-4-yl]-6-acetamidomethylindoline] | 5.11 | 3.09 |
| COc1ccc(CCN2CCC(N3CCc4ccc(OC)cc43)CC2)cc1 [Example 228, 1-[1-(4-methoxyphenethyl)piperidin-4-yl]-6-methoxyindoline] | > 200 | 0.34 |
| COc1ccc(CCN2CCC(N3CCc4ccc(F)cc43)CC2)cc1 [Example 229, 1-[1-(4-methoxyphenethyl)piperidin-4-yl]-6-fluoroindoline] | > 200 | 2.5 |
| COc1ccc2c(c1)N(C1CCN(CCc3ccc(S(N)(=O)=O)cc3)CC1)CC2 [Example 230, 1-[1-(4-sulfamoylphenethyl)piperidin-4-yl]-6-methoxyindoline] | > 200 | 13.3 |
| COc1ccc2c(c1)N(C1CCN(CCc3ccc4ncsc4c3)CC1)CC2 [Example 233, 1-{1-[2-(6-benzothiazolyl)ethyl]-piperidin-4-yl}-6-methoxyindoline] | > 200 | 0.6 |
| Fc1ccc(CCN2CCC(N3CCc4cc5scnc5cc43)CC2)cc1 [Example 234, 1-[1-(4-fluorophenethyl)piperidin-4-yl]thiazolo[5,4-f]indoline] | 3.3 | 1.1 |
| CN1CCC(N2CCc3ccc(NS(=O)(=O)c4ccc(F)cc4)cc32)CC1 [Example 237, 1-(1-methylpiperidin-4-yl)-6-(4-fluorobenzenesulfonylamino)indoline] | > 200 | 30.4 |
| CCN1CCC(N2CCc3ccc(NS(=O)(=O)c4ccc(F)cc4)cc32)CC1 [Example 238, 1-(1-ethylpiperidin-4-yl)-6-(4-fluorobenzenesulfonylamino)indoline] | > 200 | 86.6 |
| CCN1CCC(N2CC(c3ccc(OC)cc3)c3ccccc32)CC1 (stereo not shown) [Example 241, 1-(1-ethylpiperidin-4-yl)-3-(4-methoxyphenyl)indoline] | 1660 | 360 |
| CCN1CCC(CN2CC(Cc3ccc(OC)cc3)c3ccccc32)CC1 (stereo not shown) [Example 243, 1-[(1-ethylpiperidin-4-yl)methyl]-3-(4-methoxybenzyl)indoline] | 53 | > 200 |
| CCN1CCC(N2CC(CCc3cccc(OC)c3)c3ccccc32)CC1 (stereo not shown) [Example 246, 1-(1-ethylpiperidin-4-yl)-3-(3-methoxyphenethyl)indoline] | 60 | > 200 |
| CCN1CCC(N2CC(CCc3cccc(F)c3)c3ccccc32)CC1 (stereo not shown) [Example 247, 1-(1-ethylpiperidin-4-yl)-3-(3-fluorophenethyl)indoline] | 52.9 | > 200 |
| CCN1CCN([C@@H]2c3ccccc3CC2N(C)Cc2ccc(F)cc2)CC1 (stereo partly shown) [Example 254] | 177 | > 200 |
| Fc1ccc(CCN2CCC(N3CCc4ccc(F)nc43)CC2)cc1 [Example 261, 1-[1-(4-fluorophenethyl)piperidin-4-yl]-6-fluoro-7-azaindoline] | 5.3 | 1.5 |
| COc1ccc(CCN2CCC(N3CCc4ccc(Cl)nc43)CC2)cc1 [Example 263, 1-[1-(4-methoxyphenethyl)piperidin-4-yl]-6-chloro-7-azaindoline] | > 200 | 0.46 |
| Fc1ccc(CCN2CCC(N3CCc4ccncc43)CC2)cc1 [Example 264, 1-[1-(4-fluorophenethyl)piperidin-4-yl]-6-azaindoline] | 139 | 11.3 |
| OCCOc1ccc2c(c1)CCCC2C1CCN(CCc2ccc(F)cc2)CC1 (stereo not shown) [Example 278, 1-[2-(4-fluorophenyl)ethyl]-4-[6-(2-hydroxy)ethoxy-1,2,3,4-tetrahydronaphthalen-1-yl]piperidine] | 3.9 | > 200 |
| COc1ccc2c(c1)C(N1CCN(CC(=O)c3ccc(F)cc3)CC1)CCC2 (stereo not shown) [Example 281, 1-{4-[2-(4-fluorophenyl)-2-oxoethyl]piperazin-1-yl}-7-methoxy-1,2,3,4-tetrahydronaphthalene Hydrochloride] | 11.2 | 35.2 |
| COc1ccc2c(c1)C(N1CCN(CCc3ccc(F)cc3)CC1)CCCC2 (stereo not shown) [Example 282, 1-(4-fluorophenethyl)-4-(2-methoxybenzocycloheptan-9-yl)piperazine] | 150 | 58.7 |
| Cn1cccc1-c1ccc2ccn(C3CCN(CCc4ccc(F)cc4)CC3)c2c1 [Example 287, 1-[1-(4-fluorophenethyl)piperidin-4-yl]-6-(1-methylpyrrol-2-yl)indole] | > 200 | 0.1 |
| CC(=O)NCc1ccc(CCN2CCC(n3ccc4ccccc43)CC2)cc1 [Example 288, 1-[1-(4-acetamidomethylphenethyl)piperidin-4-yl]indole] | 0.1 | 0.2 |
| O=C(Cc1ccc2ccn(C3CCN(CCc4ccc(F)cc4)CC3)c2c1)NCCc1ccccn1 [Example 315, 1-[1-(4-fluorophenethyl)piperidin-4-yl]-6-[2-(pyridin-2-yl)ethyl]carbamoylmethylindole Oxalate] | 1.18 | 6.74 |
